As a reminder, the IC50 is the midpoint of a concentration-inhibition curve.

The assay has as its target T1, TRPV3 (Mus musculus, UniProt Q8K424).
T1 construct: expressed in transfected cells; host or cells: HEK 293T
T1 sequence (Q8K424 1-791): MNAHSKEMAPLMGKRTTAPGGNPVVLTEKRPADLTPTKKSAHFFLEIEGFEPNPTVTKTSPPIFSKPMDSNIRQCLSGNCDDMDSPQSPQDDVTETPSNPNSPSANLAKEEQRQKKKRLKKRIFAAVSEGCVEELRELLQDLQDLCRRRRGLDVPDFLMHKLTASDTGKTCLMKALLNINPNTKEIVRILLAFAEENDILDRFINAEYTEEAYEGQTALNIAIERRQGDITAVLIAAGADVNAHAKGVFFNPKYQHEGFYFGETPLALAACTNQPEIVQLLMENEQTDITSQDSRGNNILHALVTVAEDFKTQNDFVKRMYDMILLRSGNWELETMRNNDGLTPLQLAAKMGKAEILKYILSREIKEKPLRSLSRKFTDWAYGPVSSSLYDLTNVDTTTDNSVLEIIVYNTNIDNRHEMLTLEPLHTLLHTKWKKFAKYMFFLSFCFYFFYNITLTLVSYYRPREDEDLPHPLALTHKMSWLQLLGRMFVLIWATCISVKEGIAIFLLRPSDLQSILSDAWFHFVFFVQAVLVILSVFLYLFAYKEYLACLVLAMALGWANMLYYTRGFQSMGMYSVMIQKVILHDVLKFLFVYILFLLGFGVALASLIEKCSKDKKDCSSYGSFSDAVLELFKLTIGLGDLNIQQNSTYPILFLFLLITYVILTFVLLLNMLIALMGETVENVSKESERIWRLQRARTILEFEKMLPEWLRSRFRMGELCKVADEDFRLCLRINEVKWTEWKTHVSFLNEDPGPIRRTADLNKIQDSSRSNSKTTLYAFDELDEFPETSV
Put plainly: Whole-cell recording of carvacrol-evoked TRPV3 currents in HEK 293T cells. The format is cell-based. The source says:
Conventional whole-cell and excised patch-clamp recording methods were used. For the recombinant expressing system, green fluorescent EGFP was used as a surface marker for gene expression. Recording pipettes were pulled from borosilicate glass capillaries (World Precision Instruments) and fire-polished to a resistance between 2 and 4 MΩ when filled with internal solution containing (in mM) 140 CsCl, 2.0 MgCl2, 5 EGTA, and 10 HEPES, pH 7.4 (adjusted with CsOH). Bath solution contained (in mM): 140 NaCl, 5 KCl, 3 EGTA, and 10 HEPES, pH 7.4 adjusted with NaOH. For recordings in keratinocytes, the bath saline consisted of (in mM) 140 NaCl, 5 KCl, 2 MgCl2, 2 CaCl2, 10 glucoses, and 10 HEPES, pH 7.4 adjusted with NaOH, and the pipette solution contained (in mM) 140 CsCl, 5 EGTA, and 10 HEPES, pH 7.3 adjusted with CsOH. […] For a subset of recordings, currents were amplified using an Axopatch 200B amplifier (Molecular Devices, Sunnyvale, CA) and recorded through a BNC-2090/MIO acquisition system (National Instruments, Austin, TX) using QStudio developed by Dr. Feng Qin at State University of New York at Buffalo. […] As determined by the conductance tests, the solution around a patch under study was fully controlled by the application of a flow rate of 100 μl/min or greater. […]

Regarding `CCCCOc1ccc(C(=O)CCN2CCCCC2)cc1` [dyclonine], the IC50 (500 μM carvacrol, after sensitization by 300 μM 2-APB, –60 mV, read-out: IC50 for inhibition of carvacrol-evoked TRPV3 currents) stood at 3.5 ± 0.34 µM. Also, the “Hill coefficient nH” value (carvacrol-evoked) was determined as 2.1 ± 0.41.

The values are drawn from PMC8112869, “Therapeutic inhibition of keratinocyte TRPV3 sensory channel by local anesthetic dyclonine” (eLife, 2021).
